Data set [1] can be described thus: Cytotoxicity against golden hamster CER cells assessed as cell viability at 100 ug/mL after 48 hrs by neutral red assay. The format is cell-based, Mesocricetus auratus.
For data set [2], the system named is HeLa. Put plainly: Cytotoxicity against human HeLa cells assessed as cell viability at 100 ug/mL after 48 hrs by neutral red assay. Format: cell-based.
Data set [3] is described as follows: Cytotoxicity against golden hamster CER cells assessed as cell viability at 20 ug/mL after 48 hrs by neutral red assay. The format is cell-based, Mesocricetus auratus.
For data set [4], the system named is HeLa. Briefly: Cytotoxicity against human HeLa cells assessed as cell viability at 20 ug/mL after 48 hrs by neutral red assay. The format is cell-based.
In data set [5] the test system is Vesicular stomatitis virus. Briefly: Antiviral activity against VSV infected in CER cells assessed as reduction in plaque formation at 20 ug/ml after 48 hrs by neutral red assay. The format is functional. Also on record: scale not given: the % may be the effect or the level left.
Data set [6] deals with Vesicular stomatitis virus. Put plainly: Antiviral activity against VSV infected in CER cells assessed as reduction in plaque formation at 4 ug/ml after 48 hrs by neutral red assay. Format: functional. Also on record: scale not given: the % may be the effect or the level left.
Data set [7] relates to Vesicular stomatitis virus. Put plainly: Antiviral activity against VSV infected in CER cells assessed as reduction in plaque formation at 0.8 ug/ml after 48 hrs by neutral red assay. Format: functional. Also on record: scale not given: the % may be the effect or the level left.
Data set [8] relates to Vesicular stomatitis virus. Briefly: Antiviral activity against VSV infected in CER cells assessed as reduction in plaque formation after 48 hrs by neutral red assay. Format: functional.
The test system of data set [9] is rhinovirus A1B. Put plainly: Antiviral activity against HRV1B infected in human HeLa cells assessed as inhibition of virus-induced cytopathicity at 20 ug/ml after 48 hrs. Format: functional, Human rhinovirus 1B. Also on record: scale not given: the % may be the effect or the level left.
Data set [10] concerns rhinovirus A1B. Put plainly: Antiviral activity against HRV1B infected in human HeLa cells assessed as inhibition of virus-induced cytopathicity at 4 ug/ml after 48 hrs. Format: functional, Human rhinovirus 1B. Also on record: scale not given: the % may be the effect or the level left.
The test system of data set [11] is rhinovirus A1B. Briefly: Antiviral activity against HRV1B infected in human HeLa cells assessed as inhibition of virus-induced cytopathicity at 0.8 ug/ml after 48 hrs. Also on record: scale not given: the % may be the effect or the level left. The format is functional, Human rhinovirus 1B. (In general: Cytopathic effects are the visible damage that an infection or toxin causes in cultured cells.)

Data set [12] concerns Vesicular stomatitis virus. Briefly: Antiviral activity against VSV infected in CER cells assessed as reduction in plaque formation at 100 ug/ml after 48 hrs by neutral red assay. The format is functional. Also on record: scale not given: the % may be the effect or the level left.
Data set [13] concerns Vesicular stomatitis virus. Briefly: Antiviral activity against VSV infected in CER cells assessed as reduction in plaque formation at 50 ug/ml after 48 hrs by neutral red assay. The format is functional. Also on record: scale not given: the % may be the effect or the level left.
Data set [14] has as its system rhinovirus A1B. Briefly: Antiviral activity against HRV1B infected in human HeLa cells assessed as inhibition of virus-induced cytopathicity at 100 ug/ml after 48 hrs. The format is functional, Human rhinovirus 1B. Also on record: scale not given: the % may be the effect or the level left.
In data set [15] the test system is rhinovirus A1B. Briefly: Antiviral activity against HRV1B infected in human HeLa cells assessed as inhibition of virus-induced cytopathicity at 50 ug/ml after 48 hrs. The format is functional, Human rhinovirus 1B. Also on record: scale not given: the % may be the effect or the level left.

Structures are written as SMILES. Converted amounts (≈) assume the structure as drawn.

As to `CC(=O)O[C@H]1[C@H](O[C@]2(C)CC[C@@H]3[C@H]([C@@H]4[C@H](C)CC[C@@H]42)C3(C)C)O[C@H](C)[C@H](O)[C@@H]1O`, the Activity result in data set [1] is given as “Non-toxic”; with HeLa [2], “Non-toxic”; in [3], “Non-toxic”; in the data set on HeLa [4], “Non-toxic”; in data set [5] it was 10%; in [6], 7%. In addition, the Activity (in [7]; in the data set with rhinovirus A1B [9]; with rhinovirus A1B [10]; in the data set with rhinovirus A1B [11]) was 0% in each case. The MIC50 in [8] is > 20 µg/mL.
With `CC(C)[C@@H]1CC[C@@H](C)C23CC[C@@](C)(O[C@@H]4O[C@H](C)[C@H](O)[C@H](O)[C@H]4O)[C@@H]2[C@@H]13` (some centres undefined) [EPICUBEBOL GLYCOSIDE], the Activity result in data set [1] is “Non-toxic”; in the data set on HeLa [2], “Non-toxic”; in data set [3] it was “Non-toxic”; in the data set on HeLa [4], “Non-toxic”; in data set [12] it was 100%; in data set [13], 90%. In addition, the Activity is listed as 4% in data set [5]; 0% in data set [6]; 25% in the data set on rhinovirus A1B [14]; 0% with rhinovirus A1B [15]; 0% with rhinovirus A1B [9]; 0% with rhinovirus A1B [10]. For the same molecule, in [8], the MIC50 worked out at 36 µg/mL (≈ 97.7 µM).
`CC(C)C(=O)O[C@H]1[C@H](O[C@]2(C)CC[C@@H]3[C@H]([C@@H]4[C@H](C)CC[C@@H]42)C3(C)C)O[C@H](C)[C@H](O)[C@@H]1O`: the Activity entry in data set [1] is “Non-toxic”; in the data set with HeLa [2], “Non-toxic”; in [3] it was “Non-toxic”; in the data set on HeLa [4], “Non-toxic”; in data set [5] it was 9%; in [6], 0%. In addition, the Activity (in data set [7]; with rhinovirus A1B [9]; with rhinovirus A1B [10]; in the data set with rhinovirus A1B [11]) was 0% throughout. Moreover, the MIC50 in data set [8] is > 20 µg/mL.
With `C[C@@H]1CC[C@H]2[C@@H]1[C@H]1[C@@H](CC[C@@]2(C)O[C@@H]2O[C@H](C)[C@H](O)[C@H](O)[C@H]2O)C1(C)C`, the Activity entry is reported as “Non-toxic” in data set [1]; “Non-toxic” in the data set on HeLa [2]; “Non-toxic” in [3]; “Non-toxic” in the data set with HeLa [4]; 73% in data set [5]; 19% in data set [6]. In addition, the Activity came to 8% in data set [7], 0% in the data set with rhinovirus A1B [9], 0% in the data set on rhinovirus A1B [10] and 0% with rhinovirus A1B [11]. Besides, in [8], the MIC50 was 14 µg/mL (≈ 38 µM).
Regarding `CC/C(C)=C\C(=O)O[C@H]1[C@H](O[C@]2(C)CC[C@@H]3[C@H]([C@@H]4[C@H](C)CC[C@@H]42)C3(C)C)O[C@H](C)[C@H](O)[C@@H]1O`, the Activity result in data set [1] was “Non-toxic”; in the data set on HeLa [2], “Non-toxic”; in [3] it was “Non-toxic”; in the data set on HeLa [4], “Non-toxic”; in data set [5] it was 22%; in [6], 18%. In addition, the Activity in data set [7] stood at 5%; in the data set on rhinovirus A1B [9] it was 0%; in the data set on rhinovirus A1B [10], 0%; in the data set on rhinovirus A1B [11] it was 0%. In addition, in [8], the MIC50 is > 20 µg/mL.
Regarding `CCC(C)C(=O)O[C@H]1[C@H](O[C@]2(C)CC[C@@H]3[C@H]([C@@H]4[C@H](C)CC[C@@H]42)C3(C)C)O[C@H](C)[C@H](O)[C@@H]1O` (some centres undefined), the Activity entry in [1] is given as “Non-toxic”; in the data set on HeLa [2] it was “Non-toxic”; in data set [3] it was “Non-toxic”; in the data set with HeLa [4], “Non-toxic”; in data set [5], 30%; in data set [6] it was 20%. Further, the Activity in [7] turned out to be 5%; in the data set with rhinovirus A1B [9] it was 0%; with rhinovirus A1B [10], 0%; in the data set with rhinovirus A1B [11], 0%. In addition, the MIC50 in data set [8] is > 20 µg/mL.
For `C/C=C(\C)C(=O)O[C@H]1[C@H](O[C@]2(C)CC[C@@H]3[C@H]([C@@H]4[C@H](C)CC[C@@H]42)C3(C)C)O[C@H](C)[C@H](O)[C@@H]1O`, the Activity entry is reported as “Non-toxic” in [1]; “Non-toxic” in the data set with HeLa [2]; “Non-toxic” in data set [3]; “Non-toxic” with HeLa [4]; 22% in [5]; 13% in data set [6]. Besides, the Activity (in [7]; in the data set with rhinovirus A1B [9]; in the data set with rhinovirus A1B [10]; with rhinovirus A1B [11]) was 0% each time. Further, the MIC50 in data set [8] was > 20 µg/mL.

(Values after ChEMBL document CHEMBL1158912, “Structure and in vitro antiviral activity of sesquiterpene glycosides from Calendula arvensis” (J Nat Prod, 1990).)
